Data as given in the supplement of paper PMC11451515.

Experiments:
Details in all cases: 48 h
[1] = system: SEM cells; test: AUC of viability dose-response curve (% viability x log10 dose units); higher = less sensitive
Summary of the method: (§1)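 Library compounds in DMSO were applied for 48 h at 37°C at 11 threefold doses (47 μM to 0.79 nM) to medium-adapted leukemia cells in 1536-well plates holding 500 or 1000 cells/well. Luminescence from CellTiter-Glo One was normalised plate by plate against DMSO and cell-free wells. Area under the curve came from trapezoidal integration of a log-logistic fit, after scaling curves that rose above full viability and discarding those that failed quality control. The fit had four parameters and used log10 doses.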

[2] = system: NOMO1; test: as above
Summary of the method: as §1

[3] = system: P12-Ichikawa; test: as above
Summary of the method: as §1

[4] = system: SEM cells; test: cell viability relative to DMSO control; higher = less cytotoxic
Summary of the method: (§2)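 NOMO1 or SEM (500 cells/well) or P12-Ichikawa (1000 cells/well) leukemia cells were adapted for at least four passages in each medium. They were seeded in 1536-well plates (5 μl) and pin-dosed with library compounds in DMSO over an 11-point threefold series, 47 μM to 0.79 nM. CellTiter-Glo One luminescence was read after 48 h at 37°C. Viability is the per-plate percentage relative to DMSO wells, with cell-free wells as background.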

[5] = system: NOMO1; test: as above
Summary of the method: as §2

[6] = system: P12-Ichikawa; test: as above
Summary of the method: as §2

CCN(CCO)CCCOc1ccc2c(Nc3cc(CC(=O)Nc4cccc(F)c4)[nH]n3)ncnc2c1
AUC of viability dose-response curve
Details | [1] | [2] | [3]
HPLM + 10% dialyzed FBS | 302 | 372 | 256
RPMI 5 mM glucose + 10% FBS | 280 | 329 | 259
RPMI 5 mM glucose + 10% dialyzed FBS | 282 | 355 | 287

cell viability [%]
Details | [4] | [5] | [6]
HPLM + 10% dialyzed FBS, 0.000781 µM | 118 | 110 | 99.6
HPLM + 10% dialyzed FBS, 0.00234 µM | 103 | 128 | 99.8
HPLM + 10% dialyzed FBS, 0.00702 µM | 110 | 102 | 107
HPLM + 10% dialyzed FBS, 0.0211 µM | 119 | 114 | 109
HPLM + 10% dialyzed FBS, 0.0632 µM | 105 | 106 | 104
HPLM + 10% dialyzed FBS, 0.19 µM | 82.5 | 85.7 | 43.9
HPLM + 10% dialyzed FBS, 0.569 µM | 40.6 | 82.7 | 11.6
HPLM + 10% dialyzed FBS, 1.71 µM | 32.3 | 76.2 | 10.8
HPLM + 10% dialyzed FBS, 5.12 µM | 34.8 | 77.8 | 9.25
HPLM + 10% dialyzed FBS, 15.4 µM | 20.6 | 81.6 | 9.18
HPLM + 10% dialyzed FBS, 46.1 µM | 15.9 | 45.1 | 10.6
RPMI 5 mM glucose + 10% FBS, 0.000781 µM | 114 | 113 | 102
RPMI 5 mM glucose + 10% FBS, 0.00234 µM | 94.6 | 105 | 110
RPMI 5 mM glucose + 10% FBS, 0.00702 µM | 118 | 120 | 115
RPMI 5 mM glucose + 10% FBS, 0.0211 µM | 102 | 113 | 117
RPMI 5 mM glucose + 10% FBS, 0.0632 µM | 119 | 98.5 | 108
RPMI 5 mM glucose + 10% FBS, 0.19 µM | 76.4 | 65.6 | 45.4
RPMI 5 mM glucose + 10% FBS, 0.569 µM | 22.4 | 50.5 | 16.7
RPMI 5 mM glucose + 10% FBS, 1.71 µM | 19.7 | 44.7 | 14.1
RPMI 5 mM glucose + 10% FBS, 5.12 µM | 21.9 | 40.9 | 11
RPMI 5 mM glucose + 10% FBS, 15.4 µM | 12.2 | 54.1 | 10.5
RPMI 5 mM glucose + 10% FBS, 46.1 µM | 5.9 | 54 | 16.3
RPMI 5 mM glucose + 10% dialyzed FBS, 0.000781 µM | 100 | 110 | 102
RPMI 5 mM glucose + 10% dialyzed FBS, 0.00234 µM | 113 | 110 | 112
RPMI 5 mM glucose + 10% dialyzed FBS, 0.00702 µM | 108 | 105 | 111
RPMI 5 mM glucose + 10% dialyzed FBS, 0.0211 µM | 109 | 111 | 111
RPMI 5 mM glucose + 10% dialyzed FBS, 0.0632 µM | 104 | 104 | 114
RPMI 5 mM glucose + 10% dialyzed FBS, 0.19 µM | 73.8 | 63.8 | 68.6
RPMI 5 mM glucose + 10% dialyzed FBS, 0.569 µM | 25.5 | 52.6 | 20.7
RPMI 5 mM glucose + 10% dialyzed FBS, 1.71 µM | 22.2 | 50.2 | 21
RPMI 5 mM glucose + 10% dialyzed FBS, 5.12 µM | 25 | 51.7 | 21.1
RPMI 5 mM glucose + 10% dialyzed FBS, 15.4 µM | 13.1 | 56.9 | 18.5
RPMI 5 mM glucose + 10% dialyzed FBS, 46.1 µM | 4.04 | 80.6 | 26.9

CCN1C[C@H](C)[N]2C(=C(O)C3=C2\C(=N/N(CC4=CC=C(F)C(=C4)Cl)C3=O)C(=O)NC)C1=O
AUC of viability dose-response curve
Details | [1] | [2] | [3]
HPLM + 10% dialyzed FBS | 440 | 408 | 458
RPMI 5 mM glucose + 10% FBS | 409 | 442 | 460
RPMI 5 mM glucose + 10% dialyzed FBS | 443 | 427 | 459

cell viability [%]
Details | [4] | [5] | [6]
HPLM + 10% dialyzed FBS, 0.000781 µM | 104 | 107 | 111
HPLM + 10% dialyzed FBS, 0.00234 µM | 103 | 125 | 116
HPLM + 10% dialyzed FBS, 0.00702 µM | 105 | 118 | 126
HPLM + 10% dialyzed FBS, 0.0211 µM | 107 | 126 | 102
HPLM + 10% dialyzed FBS, 0.0632 µM | 106 | 120 | 124
HPLM + 10% dialyzed FBS, 0.19 µM | 102 | 131 | 121
HPLM + 10% dialyzed FBS, 0.569 µM | 109 | 98.2 | 111
HPLM + 10% dialyzed FBS, 1.71 µM | 50.4 | 92.5 | 97.4
HPLM + 10% dialyzed FBS, 5.12 µM | 98.5 | 96.5 | 103
HPLM + 10% dialyzed FBS, 15.4 µM | 100 | 58 | 107
HPLM + 10% dialyzed FBS, 46.1 µM | 94 | 11.9 | 112
RPMI 5 mM glucose + 10% FBS, 0.000781 µM | 115 | 107 | 103
RPMI 5 mM glucose + 10% FBS, 0.00234 µM | 115 | 98.3 | 115
RPMI 5 mM glucose + 10% FBS, 0.00702 µM | 117 | 111 | 115
RPMI 5 mM glucose + 10% FBS, 0.0211 µM | 103 | 111 | 110
RPMI 5 mM glucose + 10% FBS, 0.0632 µM | 110 | 104 | 113
RPMI 5 mM glucose + 10% FBS, 0.19 µM | 106 | 96 | 114
RPMI 5 mM glucose + 10% FBS, 0.569 µM | 105 | 97.7 | 111
RPMI 5 mM glucose + 10% FBS, 1.71 µM | 18 | 99.2 | 101
RPMI 5 mM glucose + 10% FBS, 5.12 µM | 100 | 96.3 | 101
RPMI 5 mM glucose + 10% FBS, 15.4 µM | 103 | 80.3 | 105
RPMI 5 mM glucose + 10% FBS, 46.1 µM | 98.9 | 11.4 | 94.7
RPMI 5 mM glucose + 10% dialyzed FBS, 0.000781 µM | 101 | 106 | 102
RPMI 5 mM glucose + 10% dialyzed FBS, 0.00234 µM | 121 | 115 | 105
RPMI 5 mM glucose + 10% dialyzed FBS, 0.00702 µM | 125 | 107 | 108
RPMI 5 mM glucose + 10% dialyzed FBS, 0.0211 µM | 117 | 121 | 116
RPMI 5 mM glucose + 10% dialyzed FBS, 0.0632 µM | 125 | 118 | 105
RPMI 5 mM glucose + 10% dialyzed FBS, 0.19 µM | 121 | 98.4 | 101
RPMI 5 mM glucose + 10% dialyzed FBS, 0.569 µM | 122 | 102 | 117
RPMI 5 mM glucose + 10% dialyzed FBS, 1.71 µM | 51.6 | 111 | 108
RPMI 5 mM glucose + 10% dialyzed FBS, 5.12 µM | 115 | 92.6 | 89.7
RPMI 5 mM glucose + 10% dialyzed FBS, 15.4 µM | 112 | 65.6 | 92.4
RPMI 5 mM glucose + 10% dialyzed FBS, 46.1 µM | 105 | 13.9 | 92.5
